# Laboratory results as given in the supplement of paper PMC10307832.
# Assays:
# Assay in all cases: relative viability (nuclei count vs DMSO), 5 days (fraction); higher = more cells survive
# [1] = compound: C1CSC2=C(C(=O)N1)SC3=C2C=C(C=C3)O [kb NB 142-70] + CC(C)C[C@H](NC(=O)[C@H](Cc1ccccc1)NC(=O)c1cnccn1)B(O)O [Bortezomib] (partner 0.002 µM)
# How it was run: (§1)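 Lung cancer cell lines in 1536-well plates were dosed by pin tool the day after seeding, either with one drug alone or with a fixed anchor-drug dose plus five library-drug doses (not always all listed) in √10 steps. After 5 days, cells were fixed and their nuclei stained in one step (final 0.05% Triton X-100, 1% formaldehyde, 1 ug/ml Hoechst), then counted on 4× images. Relative viability is the nuclei count in treated wells divided by that in vehicle wells. Values are medians of duplicate plates.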
# [2] = compound: NCC(=O)Nc1ccc(-n2nc(C(F)(F)F)cc2-c2ccc3c(ccc4ccccc43)c2)cc1 + Cc1nc(Nc2ncc(C(=O)Nc3c(C)cccc3Cl)s2)cc(N2CCN(CCO)CC2)n1 [Dasatinib] (partner 0.075 µM)
# How it was run: as §1
# [3] = compound: C1CSC2=C(C(=O)N1)SC3=C2C=C(C=C3)O [kb NB 142-70] + C[C@]1(O)C[C@@H](c2nc(-c3ccc4ccc(-c5ccccc5)nc4c3)c3c(N)nccn32)C1 [Linsitinib] (partner 1 µM)
# How it was run: as §1
# [4] = compound: NCC(=O)Nc1ccc(-n2nc(C(F)(F)F)cc2-c2ccc3c(ccc4ccccc43)c2)cc1 + CC(=O)c1c(C)c2cnc(Nc3ccc(N4CCNCC4)cn3)nc2n(C2CCCC2)c1=O [Palbociclib] (partner 0.5 µM)
# How it was run: as §1
# [5] = compound: C1CSC2=C(C(=O)N1)SC3=C2C=C(C=C3)O [kb NB 142-70] + Cc1nc(Nc2ncc(C(=O)Nc3c(C)cccc3Cl)s2)cc(N2CCN(CCO)CC2)n1 [Dasatinib] (partner 0.075 µM)
# How it was run: as §1
Cell Line,relative viability ([1]; first compound 0.1 µM),relative viability ([1]; first compound 1 µM),relative viability ([1]; first compound 3.162 µM),relative viability ([2]; first compound 0.02 µM),relative viability ([2]; first compound 0.06325 µM),relative viability ([2]; first compound 0.2 µM),relative viability ([2]; first compound 0.6325 µM),relative viability ([2]; first compound 2 µM),relative viability ([3]; first compound 0.1 µM),relative viability ([3]; first compound 1 µM),relative viability ([3]; first compound 3.162 µM),relative viability ([4]; first compound 0.02 µM),relative viability ([4]; first compound 0.06325 µM),relative viability ([4]; first compound 0.2 µM),relative viability ([4]; first compound 0.6325 µM),relative viability ([4]; first compound 2 µM),relative viability ([5]; first compound 0.1 µM),relative viability ([5]; first compound 1 µM),relative viability ([5]; first compound 3.162 µM)
NCI-H2023,1.09,1.02,0.668,0.649,0.549,0.618,0.6,0.552,0.698,0.673,0.396,0.461,0.414,0.391,0.345,0.297,0.51,0.536,0.5
NCI-H2085,1,1,0.709,0.291,0.282,0.292,0.263,0.341,0.807,0.515,0.599,0.533,0.477,0.474,0.469,0.473,0.252,0.198,0.274
NCI-H2087,0.821,0.88,0.755,0.862,0.854,0.928,0.762,0.904,1.05,0.956,0.915,0.256,0.278,0.262,0.249,0.24,0.907,1.04,0.608
NCI-H2126,1.11,1.14,1.12,0.573,0.664,0.667,0.702,0.602,0.702,0.729,0.681,0.369,0.334,0.369,0.385,0.327,0.622,0.558,0.537
NCI-H2228,1.08,0.689,0.303,0.561,0.571,0.523,0.472,0.533,0.525,0.872,0.629,0.711,0.78,0.802,0.653,0.656,0.568,0.542,0.405
NCI-H2347,1.03,0.808,1.07,0.36,0.365,0.301,0.326,0.298,0.975,1.03,1.03,0.426,0.384,0.448,0.473,0.419,0.311,0.349,0.279
NCI-H2405,0.969,0.993,1.01,0.225,0.202,0.185,0.201,0.221,0.969,0.834,0.641,0.501,0.519,0.556,0.515,0.517,0.205,0.208,0.224
NCI-H3122,1.09,1.06,1.03,0.862,0.837,0.824,0.912,0.799,1.03,1.01,0.924,0.197,0.182,0.179,0.206,0.155,0.803,0.794,0.84
